Results reported in patent publication US10040759B2, “Substituted azetidinyl compounds as GlyT1 inhibitors” (DART NEUROSCIENCE (CAYMAN) LTD., priority 2014, dated 2018).

Molecular target: T1, GlyT1 (Homo sapiens, UniProt P48067)
T1 construct: expressed in transfected cells
T1 sequence (P48067 1-706): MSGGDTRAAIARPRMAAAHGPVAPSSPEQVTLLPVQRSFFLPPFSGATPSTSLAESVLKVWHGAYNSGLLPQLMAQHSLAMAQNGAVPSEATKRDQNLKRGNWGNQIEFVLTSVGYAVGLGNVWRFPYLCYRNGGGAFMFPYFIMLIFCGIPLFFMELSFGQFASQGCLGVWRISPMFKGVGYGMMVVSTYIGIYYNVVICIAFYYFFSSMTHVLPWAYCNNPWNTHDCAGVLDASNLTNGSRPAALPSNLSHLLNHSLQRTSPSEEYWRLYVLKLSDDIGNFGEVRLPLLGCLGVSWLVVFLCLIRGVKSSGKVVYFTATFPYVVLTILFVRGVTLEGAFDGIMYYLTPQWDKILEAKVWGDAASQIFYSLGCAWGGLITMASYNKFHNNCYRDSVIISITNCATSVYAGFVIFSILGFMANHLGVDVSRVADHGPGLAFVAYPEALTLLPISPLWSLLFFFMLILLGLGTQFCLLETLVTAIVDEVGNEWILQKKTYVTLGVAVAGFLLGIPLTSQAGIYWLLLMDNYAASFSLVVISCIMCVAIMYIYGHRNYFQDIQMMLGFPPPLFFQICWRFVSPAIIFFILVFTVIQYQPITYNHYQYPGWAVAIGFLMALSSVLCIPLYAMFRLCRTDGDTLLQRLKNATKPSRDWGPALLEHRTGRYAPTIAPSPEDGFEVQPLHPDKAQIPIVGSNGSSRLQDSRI
Experiment: Glycine Transporter 1 (GlyT1) uptake assay, scintillation proximity assay of [14C]-glycine uptake
Type: cell-based
Conditions: [14C]-glycine uptake; read-out: GlyT1 (pIC50) (converted)
In short: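 IC50 values were derived by four-parameter logistic fitting of counts. The 2× compound solutions were made by 1:100 dilution into HBSS of DMSO serial dilutions.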

Row | IC50 | SMILES
1 | 100 to 1000 nM | COc1cc(C(F)(F)F)ccc1C1CN(C(=O)c2c(O[C@@H](C)C(F)(F)F)ccc(C#N)c2OC)C1 [Example 129, 2-Methoxy-3-({3-[2-methoxy-4-(trifluoromethyl)phenyl]azetidin-1-yl}carbonyl)-4-{[(2S)-1,1,1-trifluoropropan-2-yl]oxy}benzonitrile]
2 | < 100 nM | COc1c(C#N)ccc(O[C@@H](C)C(F)(F)F)c1C(=O)N1CC(c2ccc3ncoc3c2)C1 [Example 130, 3-{[3-(1,3-Benzoxazol-6-yl)azetidin-1-yl]carbonyl}-2-methoxy-4-{[(2S)-1,1,1-trifluoropropan-2-yl]oxy}benzonitrile]
3 | < 100 nM | C[C@H](Oc1ccc(C#N)c(Cl)c1C(=O)N1CC(c2ccc(C#N)cc2Cl)C1)C(F)(F)F [Example 131, 2-Chloro-3-{[3-(2-chloro-4-cyanophenyl)azetidin-1-yl]carbonyl}-4-{[(2S)-1,1,1-trifluoropropan-2-yl]oxy}benzonitrile]
4 | < 100 nM | COc1c(C#N)ccc(C2(F)CCOCC2)c1C(=O)N1CC(c2ccc(C#N)cc2Cl)C1 [Example 132, 3-{[3-(2-Chloro-4-cyanophenyl)azetidin-1-yl]carbonyl}-4-(4-fluorooxan-4-yl)-2-methoxybenzonitrile]
5 | < 100 nM | COc1c(C#N)ccc(C2(F)CCC(F)(F)CC2)c1C(=O)N1CC(c2ccc(C#N)cc2Cl)C1 [Example 133, 3-{[3-(2-Chloro-4-cyanophenyl)azetidin-1-yl]carbonyl}-2-methoxy-4-(1,4,4-trifluorocyclohexyl)benzonitrile]
6 | < 100 nM | COc1c(C#N)ccc(C2(F)CCC2)c1C(=O)N1CC(c2ccc(C#N)cc2Cl)C1 [Example 134, 3-{[3-(2-Chloro-4-cyanophenyl)azetidin-1-yl]carbonyl}-4-(1-fluorocyclobutyl)-2-methoxybenzonitrile]
7 | 100 to 1000 nM | COc1c(C#N)ccc(O[C@H](C)C(F)(F)F)c1C(=O)N1CC(c2ccc(C(F)(F)F)cn2)C1 [Example 135, 2-Methoxy-3-{3-[5-(trifluoromethyl)pyridin-2-yl]azetidine-1-carbonyl}-4-{[(2R)-1,1,1-trifluoropropan-2-yl]oxy}benzonitrile]
8 | 100 to 1000 nM | COc1c(C#N)ccc(O[C@H](C)C(F)(F)F)c1C(=O)N1CC(c2ncc(C(F)(F)F)cc2Cl)C1 [Example 136, 3-{3-[3-Chloro-5-(trifluoromethyl)pyridin-2-yl]azetidine-1-carbonyl}-2-methoxy-4-{[(2R)-1,1,1-trifluoropropan-2-yl]oxy}benzonitrile]
9 | < 100 nM | COc1c(C#N)ccc(O[C@H](C)C(F)(F)F)c1C(=O)N1CC(c2ccc(C(F)F)cn2)C1 [Example 137, 3-{3-[5-(Difluoromethyl)pyridin-2-yl]azetidine-1-carbonyl}-2-methoxy-4-{[(2R)-1,1,1-trifluoropropan-2-yl]oxy}benzonitrile]
10 | 100 to 1000 nM | COc1c(S(C)(=O)=O)ccc(O[C@H](C)C(F)(F)F)c1C(=O)N1CC(c2ccc(C(F)(F)F)cc2F)C1 [Example 138, 3-[2-Fluoro-4-(trifluoromethyl)phenyl]-1-(3-methanesulfonyl-2-methoxy-6-{[(2R)-1,1,1-trifluoropropan-2-yl]oxy}benzoyl)azetidine]
11 | < 100 nM | COc1c(S(C)(=O)=O)ccc(O[C@@H](C)C(F)(F)F)c1C(=O)N1CC(c2ccc(C(F)(F)F)cc2F)C1 [Example 139, 3-[2-Fluoro-4-(trifluoromethyl)phenyl]-1-(3-methanesulfonyl-2-methoxy-6-{[(2S)-1,1,1-trifluoropropan-2-yl]oxy}benzoyl)azetidine]
12 | 100 to 1000 nM | COc1c(S(C)(=O)=O)ccc(O[C@H](C)C(F)(F)F)c1C(=O)N1CC(c2ccc(C(F)(F)F)c(F)c2)C1 [Example 140, 3-[3-Fluoro-4-(trifluoromethyl)phenyl]-1-(3-methanesulfonyl-2-methoxy-6-{[(2R)-1,1,1-trifluoropropan-2-yl]oxy}benzoyl)azetidine]
13 | 100 to 1000 nM | COc1c(S(C)(=O)=O)ccc(O[C@@H](C)C(F)(F)F)c1C(=O)N1CC(c2ccc(C(F)(F)F)c(F)c2)C1 [Example 141, 3-[3-Fluoro-4-(trifluoromethyl)phenyl]-1-(3-methanesulfonyl-2-methoxy-6-{[(2S)-1,1,1-trifluoropropan-2-yl]oxy}benzoyl)azetidine]
14 | 1000 to 10000 nM | COc1c(S(C)(=O)=O)ccc(O[C@@H](C)C(F)(F)F)c1C(=O)N1CC(c2ccc(C(F)F)c(F)c2)C1 [Example 142, 3-[4-(Difluoromethyl)-3-fluorophenyl]-1-(3-methanesulfonyl-2-methoxy-6-{[(2S)-1,1,1-trifluoropropan-2-yl]oxy}benzoyl)azetidine]
15 | 100 to 1000 nM | COc1c(S(C)(=O)=O)ccc(O[C@@H](C)C(F)(F)F)c1C(=O)N1CC(c2ccc(C(F)F)cc2F)C1 [Example 143, 3-[4-(Difluoromethyl)-2-fluorophenyl]-1-(3-methanesulfonyl-2-methoxy-6-{[(2S)-1,1,1-trifluoropropan-2-yl]oxy}benzoyl)azetidine]
16 | 1000 to 10000 nM | COc1cc(C2CN(C(=O)c3c(O[C@@H](C)C(F)(F)F)ccc(S(C)(=O)=O)c3OC)C2)ccc1C(F)(F)F [Example 144, 1-(3-Methanesulfonyl-2-methoxy-6-{[(2S)-1,1,1-trifluoropropan-2-yl]oxy}benzoyl)-3-[3-methoxy-4-(trifluoromethyl)phenyl]azetidine]
17 | 100 to 1000 nM | COc1c(S(C)(=O)=O)ccc(O[C@@H](C)C(F)(F)F)c1C(=O)N1CC(c2ccc(F)cc2Cl)C1 [Example 145, 3-(2-Chloro-4-fluorophenyl)-1-(3-methanesulfonyl-2-methoxy-6-{[(2S)-1,1,1-trifluoropropan-2-yl]oxy}benzoyl)azetidine]
18 | < 100 nM | COc1c(S(C)(=O)=O)ccc(O[C@@H](C)C(F)(F)F)c1C(=O)N1CC(c2ccc(C(F)(F)F)cc2Cl)C1 [Example 146, 3-[2-Chloro-4-(trifluoromethyl)phenyl]-1-(3-methanesulfonyl-2-methoxy-6-{[(2S)-1,1,1-trifluoropropan-2-yl]oxy}benzoyl)azetidine]
19 | < 100 nM | COc1c(S(C)(=O)=O)ccc(O[C@@H](C)C(F)(F)F)c1C(=O)N1CC(c2ccc(C(F)F)cc2Cl)C1 [Example 147, 3-[2-Chloro-4-(difluoromethyl)phenyl]-1-(3-methanesulfonyl-2-methoxy-6-{[(2S)-1,1,1-trifluoropropan-2-yl]oxy}benzoyl)azetidine]
20 | < 100 nM | COc1c(S(C)(=O)=O)ccc(O[C@@H](C)C(F)(F)F)c1C(=O)N1CC(c2ccc([N+](=O)[O-])cc2)C1 [Example 148, 1-(3-Methanesulfonyl-2-methoxy-6-{[(2S)-1,1,1-trifluoropropan-2-yl]oxy}benzoyl)-3-(4-nitrophenyl)azetidine]
21 | < 100 nM | COc1c(S(C)(=O)=O)ccc(O[C@H](C)C(F)(F)F)c1C(=O)N1CC(Cc2ccc(C(F)(F)F)cc2)C1 [Example 149, 1-(3-Methanesulfonyl-2-methoxy-6-{[(2R)-1,1,1-trifluoropropan-2-yl]oxy}benzoyl)-3-{[4-(trifluoromethyl)phenyl]methyl}azetidine]
22 | < 100 nM | COc1c(S(C)(=O)=O)ccc(O[C@@H](C)C(F)(F)F)c1C(=O)N1CC(c2cc(F)c(F)c(F)c2)C1 [Example 150, 1-(3-Methanesulfonyl-2-methoxy-6-{[(2S)-1,1,1-trifluoropropan-2-yl]oxy}benzoyl)-3-(3,4,5-trifluorophenyl)azetidine]
23 | 100 to 1000 nM | COc1c(C#N)ccc(C2CC(F)(F)C2)c1C(=O)N1CC(c2ccc(C(F)(F)F)cn2)C1 [Example 151, 4-(3,3-Difluorocyclobutyl)-2-methoxy-3-{3-[5-(trifluoromethyl)pyridin-2-yl]azetidine-1-carbonyl}benzonitrile]
24 | < 100 nM | COc1c(C#N)ccc(C2CC(F)(F)C2)c1C(=O)N1CC(c2ncc(C(F)(F)F)cc2Cl)C1 [Example 152, 3-{3-[3-Chloro-5-(trifluoromethyl)pyridin-2-yl]azetidine-1-carbonyl}-4-(3,3-difluorocyclobutyl)-2-methoxybenzonitrile]
25 | < 100 nM | COc1c(C#N)ccc(C2CC(F)(F)C2)c1C(=O)N1CC(c2ncc(C(F)(F)F)cc2F)C1 [Example 153, 4-(3,3-Difluorocyclobutyl)-3-{3-[3-fluoro-5-(trifluoromethyl)pyridin-2-yl]azetidine-1-carbonyl}-2-methoxybenzonitrile]
26 | < 100 nM | COc1c(S(C)(=O)=O)ccc(O[C@@H](C)C(F)(F)F)c1C(=O)N1CC(c2cc(F)c(F)cc2F)C1 [Example 154, 1-(3-Methanesulfonyl-2-methoxy-6-{[(2S)-1,1,1-trifluoropropan-2-yl]oxy}benzoyl)-3-(2,4,5-trifluorophenyl)azetidine]
27 | < 100 nM | COc1c(S(C)(=O)=O)ccc(O[C@@H](C)C(F)(F)F)c1C(=O)N1CC(c2ccc(F)c(F)c2F)C1 [Example 155, 1-(3-Methanesulfonyl-2-methoxy-6-{[(2S)-1,1,1-trifluoropropan-2-yl]oxy}benzoyl)-3-(2,3,4-trifluorophenyl)azetidine]
